{"source": "paper PMC3429062", "about": "“A Novel Member of the Trehalose Transporter Family Functions as an H^+-Dependent Trehalose Transporter in the Reabsorption of Trehalose in Malpighian Tubules” (Frontiers in Physiology, 2012)", "biological_target": "T1, PvTRET1 (Polypedilum vanderplanki, UniProt A5LGM7)", "T1 construct": "gene Tret1; expressed from injected cRNA in Xenopus oocytes; construct described previously", "T1 sequence (A5LGM7 1-504)": "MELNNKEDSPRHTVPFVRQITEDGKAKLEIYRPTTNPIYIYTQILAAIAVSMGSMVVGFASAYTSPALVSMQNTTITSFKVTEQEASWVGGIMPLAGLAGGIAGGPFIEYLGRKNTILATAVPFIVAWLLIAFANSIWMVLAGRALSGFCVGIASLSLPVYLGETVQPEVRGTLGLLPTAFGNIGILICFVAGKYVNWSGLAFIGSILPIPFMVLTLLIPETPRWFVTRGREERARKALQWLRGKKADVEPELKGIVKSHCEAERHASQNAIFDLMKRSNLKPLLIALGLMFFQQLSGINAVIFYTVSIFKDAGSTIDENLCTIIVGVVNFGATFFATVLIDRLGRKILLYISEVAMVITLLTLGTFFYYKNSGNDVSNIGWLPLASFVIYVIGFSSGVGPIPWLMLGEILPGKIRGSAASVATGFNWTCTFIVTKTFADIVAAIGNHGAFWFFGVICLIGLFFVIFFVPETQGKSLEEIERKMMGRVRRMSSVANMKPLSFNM", "test": "uptake into cRNA-injected Xenopus oocytes, HPLC", "assay_type": "cell-based", "details": "105 mM trehalose, various pH; transport", "data": [{"molecule": "OC[C@H]1O[C@H](O[C@H]2O[C@H](CO)[C@@H](O)[C@H](O)[C@H]2O)[C@H](O)[C@@H](O)[C@@H]1O", "note": "[trehalose]", "values": [{"measurement": "trehalose uptake", "result": "Trehalose uptake into Xenopus oocytes via PvTRET1 at various pH values"}]}]}
